Laboratory results from patent EP2519243B1, “COMPOSITIONS AND METHODS FOR TREATING HEPATITIS B VIRUS INFECTION” (priority 2009, dated 2011).
Where two headings read alike, the source gives them in different places.

Experiments:
[1] = tested on: HBV; assay: Viral dynamic analyses of serum HBV DNA under lamivudine therapy (model fit and simulation); parameters: species or system human; details: estimate (standard error)
From the text: The HBV DNA data used in the unique assessments disclosed herein of HBV viral dynamics under lamivudine therapy were obtained from the previously published lamivudine dose-response curves (FIG. 1). […] Therefore, for the viral dynamic analyses, only data up to day 15 were used.
The digitalized data were converted to percent change from baseline as (Vt-V0)/V0 and further presented as Vt/V0, where V0 and Vt are the HBV DNA data at baseline and at time t after treatment initiation, respectively. The viral dynamic model as illustrated below was fitted to the Vt/V0 vs. time data: Vt /V0 = [(ε*u-a)/(u-a)]*exp(-u*t) + [(1-ε)*u/(u-a)]*exp(-a*t) [formula] where u is the clearance rate constant of free virions; a is the clearance rate constant of infected cells; ε is the inhibition efficacy.
Table 3. Exemplary viral dynamic parameter estimates (standard error) of lamivudine
These analyses are illustrated in FIG. 2.
Table 4. Examples of model predicted HBV DNA reduction from baseline on long10 scale (% change)

[2] = tested on: HBV; details: day 29, 100 mg/day dose; no additional benefits with 300 mg or 600 mg; cited from earlier work
[3] = tested on: HBV; assay: Emax modeling of predicted day 29 HBV DNA reduction versus lamivudine dose; parameters: species or system human; details: Emax model estimate (standard error); Emax fixed to 4; day 29 predicted data
From the text: The predicted HBV DNA reduction data on day 29 were used for Emax modeling analyses for the purpose of defining optimal doses of lamivudine.
An Emax model in the form of E = Emax *ED50^h /(D^h+ED50^h) [formula] where E and Emax are the viral response with dose D and maximum viral response respectively; ED50 is the dose resulting in 50% of viral response; h is the Hill parameter. The maximum reduction of HBV NDA at 4 weeks achievable by a nucleoside/nucleotide antiviral is approximately 4 log10. (Buti et al. J. Hepatol. 39: S139-S142, 2003.) Therefore, in the Emax modeling herein, Emax was fixed to 4.
Using these estimates, viral responses at untested doses were predicted and results are illustrated in FIG. 3 and presented in Table 5.

[4] = cited from earlier work
[5] = tested on: HBV; details: cited from earlier work; for cumulative rate of resistance: in 5 years

## Nc1ccn([C@@H]2CS[C@H](CO)O2)c(=O)n1 (relative stereo) [lamivudine, (2R,cis)-4-amino-1-(2-hydroxymethyl-1,3-oxathiolan-5-yl)-(1H)-pyrimidin-2-one]
[1]; lamivudine 5 mg/day
  e (inhibition efficacy): 0.6193 (0.0369)
[1]; lamivudine 20 mg/day
  e (inhibition efficacy): 0.8186 (0.0374)
[1]; lamivudine 100 mg/day
  e (inhibition efficacy): 0.8173 (0.0254)
[1]; lamivudine 300 mg/day
  e (inhibition efficacy): 0.8463 (0.0087)
[1]; lamivudine 600 mg/day
  e (inhibition efficacy): 0.8673 (0.0248)
[2]
  maximal observed viral suppression (median, from baseline): ≥ 98%
[3]
  ED50 (dose resulting in 50% of viral response): 101.5 (29.04) mg

## CC(C)(C)C(=O)OCOP(=O)(COCCn1cnc2c(N)ncnc21)OCOC(=O)C(C)(C)C [adefovir dipivoxil, 9-[2-[[bis[(pivaloyloxy)methoxy]-phosphinyl]-methoxy]ethyl]adenine]
[4]; 10 mg per day, 4-5 years, patients with compensated liver disease
  cumulative rate of nephrotoxicity: 3%
[4]; decompensated liver disease and liver transplantation, treatment periods of 39-99 weeks
  adefovir-associated nephrotoxicity (patients): up to 47%
[5]; HBeAg negative patients
  cumulative rate of resistance: 29%
[5]; HBeAg positive patients
  cumulative rate of resistance: about 20%
[5]; monotherapy
  5-year resistance rate: 20-30%
